This passage reports Ki and Tm results from ChEMBL document CHEMBL1151780, “Correlation of inhibitor effects on enzyme activity and thermal stability for the integral membrane protein fatty acid amide hydrolase” (Bioorg Med Chem Lett, 2008).

In test [1] the target is T1, Fatty-acid amide hydrolase 1 (Homo sapiens, UniProt O00519).
T1 sequence (O00519 whole entry): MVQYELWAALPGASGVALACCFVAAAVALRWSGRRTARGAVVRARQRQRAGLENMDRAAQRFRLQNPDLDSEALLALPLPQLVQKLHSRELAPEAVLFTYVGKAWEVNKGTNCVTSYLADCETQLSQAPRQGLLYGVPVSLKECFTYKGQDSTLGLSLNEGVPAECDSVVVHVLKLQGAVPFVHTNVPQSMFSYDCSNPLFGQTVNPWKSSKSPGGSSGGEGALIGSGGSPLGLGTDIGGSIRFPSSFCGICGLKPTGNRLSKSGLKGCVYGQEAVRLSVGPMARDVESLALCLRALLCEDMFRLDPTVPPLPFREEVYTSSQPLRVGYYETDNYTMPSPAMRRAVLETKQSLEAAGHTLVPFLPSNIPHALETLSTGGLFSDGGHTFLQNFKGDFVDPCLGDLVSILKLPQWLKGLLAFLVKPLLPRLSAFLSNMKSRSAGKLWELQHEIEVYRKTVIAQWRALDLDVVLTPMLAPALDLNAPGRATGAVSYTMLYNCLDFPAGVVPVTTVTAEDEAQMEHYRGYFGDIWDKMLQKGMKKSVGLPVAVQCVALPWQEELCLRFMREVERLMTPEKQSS
Description: Inhibition of FAAH at pH 7.5.

Test [2] deals with T2, Fatty-acid amide hydrolase 1 (Homo sapiens) (UniProt O00519).
T2 sequence (whole entry): T1 sequence (O00519 whole entry)
Description: Binding affinity to FAAH assessed as thermal stability by measuring melting temperature

Test [3] addresses T1, Fatty-acid amide hydrolase 1. Description: Inhibition of FAAH at pH 9.

Usually Ki stands for a measure of affinity in units of concentration, obtained from inhibition or displacement. Read a high Ki as lower affinity.

The compound `O=C(O)c1cccc(-c2cnc(C(=O)CCCCCCc3ccccc3)o2)n1` displayed a Ki in test [1] of 10.4 nM.
For `COC(=O)c1cccc(-c2cnc(C(=O)CCCCCCc3ccccc3)o2)n1`, in test [2], the Tm was determined as 53.4 °C.
Still for that read-out and setting: in the case of `O=C(CCc1ccc(-c2ccccc2)cc1)c1ncc(-c2ccccn2)o1` it was 59.9 °C.
On to `O=C(O)c1cccc(-c2cnc(C(=O)CCc3ccc(-c4ccc(CN5CCSCC5)cc4)cc3)o2)n1`, for which the affinity in test [3], expressed as Ki, was 28 nM. Besides, the Tm in test [2] was determined as 65.3 °C.
In the case of `O=C(CCCCCCc1ccccc1)c1ncc(-c2ccccc2)o1`, the Tm in test [2] turned out to be 47.2 °C.
Regarding `O=C(O)c1cccc(-c2nnc(C(=O)CCCCCCc3ccccc3)o2)n1`, in test [3], the Ki was 14 nM. Further, the Tm in test [2] worked out at 64.3 °C.
`O=C(CCCCCCc1ccccc1)c1ncc(-c2ccccn2)o1`: the Tm in test [2] was 58.5 °C.
The same measure, in the same setting: in the case of `NC(=O)c1cccc(-c2cnc(C(=O)CCCCCCc3ccccc3)o2)n1` it was 55 °C.
Turning to `O=C(CCCCCCc1ccccc1)c1ncc(-c2cccc(-c3nnn[nH]3)n2)o1`, the Ki in test [3] turned out to be 40 nM. Moreover, in test [2], the Tm was determined as 54.7 °C.
The corresponding values for `O=C(CCCCCCc1ccccc1)c1nnc(-c2ccccn2)o1` are 0.29 nM and 60.6 °C.
In test [3], `O=C(O)c1cccc(-c2cnc(C(=O)CCc3ccc(-c4ccccc4)cc3)o2)n1` showed a Ki of 22 nM.
